The source of these data is patent publication US10477864B2, “Microbiocidal quinoline (thio)carboxamide derivatives” (priority 2016, dated 2019).

Structures are written as SMILES.

Data set [1] relates to Botryotinia fuckeliana (Botrytis cinerea). The data set can be described thus: Botryotinia fuckeliana (Botrytis cinerea) / liquid culture (gray mould). In kind it is cell-based. Particulars: 72 h, read-out: control of Botryotinia fuckeliana.
The test system of data set [2] is Glomerella lagenarium (Colletotrichum lagenarium). The data set can be described thus: Glomerella lagenarium (Colletotrichum lagenarium) / liquid culture (anthracnose). In kind it is cell-based. Particulars: Colletotrichum orbiculare; read-out: control of Glomerella lagenarium.
Data set [3] has as its system Mycosphaerella graminicola (Septoria tritici). The data set can be described thus: Mycosphaerella graminicola (Septoria tritici) / liquid culture (Septoria blotch). In kind it is cell-based. As to conditions: Zymoseptoria tritici; read-out: control of Mycosphaerella graminicola.
Data set [4] has as its system Gaeumannomyces graminis. Description: Gaeumannomyces graminis / liquid culture (take-all of cereals). In kind it is cell-based. Particulars: read-out: control of Gaeumannomyces graminis.
Data set [5] relates to Monographella nivalis (Microdochium nivale). The data set can be described thus: Monographella nivalis (Microdochium nivale) / liquid culture (foot rot cereals). In kind it is cell-based. Particulars: 96 h, read-out: control of Monographella nivalis.
The subject of data set [6] is Fusarium culmorum. Description: microbe, parasite or virus in culture. Particulars: read-out: control of Fusarium culmorum. In kind it is cell-based.
Data set [7] has as its system Sclerotinia sclerotiorum. The data set can be described thus: Sclerotinia sclerotiorum / liquid culture (cottony rot). Particulars: 72 h, read-out: control of Sclerotinia sclerotiorum.
Method: Sclerotinia sclerotiorum/Liquid Culture (Cottony Rot)
Mycelia fragments of a newly grown liquid culture of the fungus are directly mixed into nutrient broth (Vogels broth). After placing a (DMSO) solution of test compound into a microtiter plate (96-well format) the nutrient broth containing the fungal material is added. The test plates are incubated at 24° C. and the inhibition of growth is determined photometrically 3-4 days after application.
The subject of data set [8] is Magnaporthe grisea (Pyricularia oryzae). Description: microbe, parasite or virus in culture. The format is cell-based. Particulars: 72 h, read-out: control of Magnaporthe grisea.
Data set [9] relates to Fusarium culmorum. Description: whole plant or invertebrate. In kind it is in vivo. Particulars: in Triticum aestivum, read-out: control of Fusarium culmorum.

With `CC(C)(Cc1ccccc1F)NC(=O)c1cnc2ccccc2c1` [Compound E-2, N-[2-(2-fluorophenyl)-1,1-dimethyl-ethyl]quinoline-3-carboxamide], the inhibition of growth at 200 ppm in [1], in data set [2], in data set [3], in data set [4], in data set [5] and in data set [6] was not below 80% throughout.

As usually defined, the melting point is the temperature, or range, at which the solid turns liquid. `CC(C)CC(C)(Cc1ccccc1)NC(=O)c1cnc2c(F)cccc2c1` (stereo not shown) [Compound E-6, N-(1-benzyl-1,3-dimethyl-butyl)-8-fluoro-quinoline-3-carboxamide] gave a melting point of 110 to 112 °C. The inhibition of growth at 200 ppm in data set [1] is not below 80%. In addition, the inhibition of growth at 200 ppm in data set [2] is not below 80%. Besides, the inhibition of growth at 20 ppm in [7] is not below 80%. In addition, the inhibition of growth at 200 ppm in data set [8] was not below 80%. The inhibition of growth at 200 ppm in [3] was not below 80%. For the same molecule, the inhibition of growth at 200 ppm in data set [4] was not below 80%. Also, the inhibition of growth at 200 ppm in data set [5] was not below 80%. In data set [9], the pest or weed control at 200 ppm was not below 80%. The inhibition of growth at 200 ppm in [6] was not below 80%.

Consider `CC(C)CC(C)(Cc1ccccc1)NC(=O)c1cnc2c(Cl)cccc2c1` (stereo not shown) [Compound E-14, N-(1-benzyl-1,3-dimethyl-butyl)-8-chloro-quinoline-3-carboxamide], for which the melting point is 147 to 148 °C. For the same molecule, the inhibition of growth at 200 ppm in data set [1] is not below 80%. In addition, the inhibition of growth at 200 ppm in [2] was not below 80%. In addition, the inhibition of growth at 20 ppm in data set [7] was not below 80%. Besides, the inhibition of growth at 200 ppm in [8] was not below 80%. The inhibition of growth at 200 ppm in data set [4] was not below 80%. Also, the inhibition of growth at 200 ppm in data set [5] is not below 80%. Moreover, the inhibition of growth at 200 ppm in data set [6] is not below 80%.

In the case of `Cc1cccc2cc(C(=O)NC(C)(Cc3ccccc3)CC(C)C)cnc12` (stereo not shown) [Compound E-20, N-(1-benzyl-1,3-dimethyl-butyl)-8-methyl-quinoline-3-carboxamide], the melting point fell in the range of 132 to 133 °C. Further, the inhibition of growth at 200 ppm in [1] was not below 80%. In addition, in [2], the inhibition of growth at 200 ppm is not below 80%. Moreover, the inhibition of growth at 20 ppm in data set [7] was not below 80%. Further, the inhibition of growth at 200 ppm in [8] was not below 80%. In addition, in data set [4], the inhibition of growth at 200 ppm was not below 80%. Further, the inhibition of growth at 200 ppm in [5] is not below 80%. Also, the pest or weed control at 200 ppm in [9] is not below 80%. The inhibition of growth at 200 ppm in data set [6] is not below 80%.

In the case of `CC(C)CC(C)(Cc1ccc(F)cc1)NC(=O)c1cnc2c(F)cccc2c1` (stereo not shown) [Compound E-24, 8-fluoro-N-[1-[(4-fluorophenyl)methyl]-1,3-dimethyl-butyl]quinoline-3-carboxamide], the melting point was in the range of 38 to 39 °C. Further, the inhibition of growth at 200 ppm in data set [1] is not below 80%. Further, the inhibition of growth at 200 ppm in data set [2] was not below 80%. Also, in data set [7], the inhibition of growth at 20 ppm is not below 80%. Besides, the inhibition of growth at 200 ppm in data set [8] was not below 80%. For the same molecule, in [4], the inhibition of growth at 200 ppm was not below 80%. The inhibition of growth at 200 ppm in [5] is not below 80%. Moreover, the pest or weed control at 200 ppm in data set [9] is not below 80%. Also, in data set [6], the inhibition of growth at 200 ppm is not below 80%.

For the molecule `CC(C)CC(C)(Cc1cccc(F)c1)NC(=O)c1cnc2c(F)cccc2c1` (stereo not shown) [Compound E-26, 8-fluoro-N-[1-[(3-fluorophenyl)methyl]-1,3-dimethyl-butyl]quinoline-3-carboxamide], the melting point is 45 to 47 °C. In [1], the inhibition of growth at 200 ppm was not below 80%. For the same molecule, the inhibition of growth at 200 ppm in [2] was not below 80%. The inhibition of growth at 20 ppm in [7] is not below 80%. The inhibition of growth at 200 ppm in data set [8] was not below 80%. In addition, in [4], the inhibition of growth at 200 ppm is not below 80%. For the same molecule, in data set [5], the inhibition of growth at 200 ppm is not below 80%. For the same molecule, the pest or weed control at 200 ppm in data set [9] is not below 80%. Further, in [6], the inhibition of growth at 200 ppm was not below 80%.

`CC(C)(C)CC(Cc1ccccc1)NC(=O)c1cnc2c(F)cccc2c1` (stereo not shown) [Compound E-28, N-(1-benzyl-3,3-dimethyl-butyl)-8-fluoro-quinoline-3-carboxamide] gave a melting point of 178 to 180 °C. Further, the inhibition of growth at 200 ppm in data set [1] is not below 80%. In addition, the inhibition of growth at 200 ppm in data set [2] was not below 80%. The inhibition of growth at 20 ppm in data set [7] was not below 80%. Further, the inhibition of growth at 200 ppm in data set [8] was not below 80%. Moreover, the inhibition of growth at 200 ppm in data set [4] is not below 80%. The inhibition of growth at 200 ppm in [5] is not below 80%. In addition, the pest or weed control at 200 ppm in data set [9] is not below 80%. For the same molecule, the inhibition of growth at 200 ppm in data set [6] was not below 80%.

`C=C(C)CC(C)(Cc1ccccc1)NC(=O)c1cnc2c(F)cccc2c1` (stereo not shown) [Compound E-35, N-(1-benzyl-1,3-dimethyl-but-3-enyl)-8-fluoro-quinoline-3-carboxamide] showed a melting point of 115 to 117 °C. In data set [1], the inhibition of growth at 200 ppm is not below 80%. The inhibition of growth at 200 ppm in [2] is not below 80%. Also, the inhibition of growth at 20 ppm in data set [7] was not below 80%. The inhibition of growth at 200 ppm in data set [8] was not below 80%. The inhibition of growth at 200 ppm in [4] was not below 80%. Further, the inhibition of growth at 200 ppm in data set [5] was not below 80%. The pest or weed control at 200 ppm in [9] was not below 80%. In data set [6], the inhibition of growth at 200 ppm is not below 80%.

`C=C(C)CC(C)(Cc1ccccc1)NC(=O)c1cnc2c(F)c(F)ccc2c1` (stereo not shown) [Compound E-55, N-(1-benzyl-1,3-dimethyl-but-3-enyl)-7,8-difluoro-quinoline-3-carboxamide] had a melting point of 94 to 96 °C. For the same molecule, the inhibition of growth at 200 ppm in data set [1] was not below 80%. Further, the inhibition of growth at 200 ppm in data set [2] is not below 80%. For the same molecule, the inhibition of growth at 200 ppm in data set [8] was not below 80%. In data set [3], the inhibition of growth at 200 ppm was not below 80%. Further, in [5], the inhibition of growth at 200 ppm was not below 80%. Also, in data set [9], the pest or weed control at 200 ppm is not below 80%. The inhibition of growth at 200 ppm in data set [6] was not below 80%.

Regarding `CC(C)(O)CC(C)(Cc1ccccc1)NC(=O)c1cnc2c(F)cccc2c1` (stereo not shown) [Compound E-58, N-(1-benzyl-3-hydroxy-1,3-dimethyl-butyl)-8-fluoro-quinoline-3-carboxamide], the inhibition of growth at 200 ppm in data set [1], in data set [2], in data set [8], in [3], in data set [5] and in [6] was not below 80% throughout. Besides, the pest or weed control at 200 ppm in data set [9] is not below 80%.

As for `Cc1cccc2cc(C(=O)NC(C)(Cc3ccccc3)CC(F)(F)F)cnc12` (stereo not shown) [Compound E-61, N-(1-benzyl-3,3,3-trifluoro-1-methyl-propyl)-8-methyl-quinoline-3-carboxamide], the melting point lay within 120 to 123 °C. Also, the inhibition of growth at 200 ppm in data set [1] is not below 80%. In addition, the inhibition of growth at 200 ppm in data set [2] is not below 80%. The inhibition of growth at 200 ppm in [8] was not below 80%. In addition, in data set [3], the inhibition of growth at 200 ppm is not below 80%. In addition, the inhibition of growth at 200 ppm in data set [5] is not below 80%. Also, in [9], the pest or weed control at 200 ppm is not below 80%. In addition, the inhibition of growth at 200 ppm in [6] was not below 80%.

Consider `CC(C)C[C@@](C)(Cc1ccccc1)NC(=O)c1cnc2c(F)cccc2c1` [Compound F-2, N-[(1S)-1-benzyl-1,3-dimethyl-butyl]-8-fluoro-quinoline-3-carboxamide], for which the inhibition of growth at 200 ppm in [1], in data set [2], in data set [3], in data set [4], in data set [5] and in data set [6] was not below 80% each time. The inhibition of growth at 20 ppm in [7] was not below 80%. In addition, the pest or weed control at 200 ppm in [9] was not below 80%.

Take `CC(C)C[C@H](Cc1ccccc1)NC(=O)c1cnc2c(F)cccc2c1` [Compound F-3, N-[(1R)-1-benzyl-3-methyl-butyl]-8-fluoro-quinoline-3-carboxamide]: the inhibition of growth at 200 ppm in data set [1], in [2], in [3], in data set [4] and in data set [6] was not below 80% in each case. Moreover, the inhibition of growth at 20 ppm in data set [7] is not below 80%. In [9], the pest or weed control at 200 ppm is not below 80%.

For the molecule `CC(C)C[C@@](C)(Cc1ccccc1)NC(=O)c1cnc2ccccc2c1` [Compound F-6, N-[(1S)-1-benzyl-1,3-dimethyl-butyl]quinoline-3-carboxamide], the inhibition of growth at 200 ppm in data set [1], in data set [2], in [3], in data set [4] and in data set [6] was not below 80% each time.

In the case of `CC(C)(F)C[C@](C)(Cc1ccccc1)NC(=O)c1cnc2c(F)cccc2c1` [Compound F-24, N-[(1S)-1-benzyl-3-fluoro-1,3-dimethyl-butyl]-8-fluoro-quinoline-3-carboxamide], the inhibition of growth at 200 ppm in [1], in data set [2], in data set [3], in [5] and in [6] was not below 80% each time. Further, the pest or weed control at 200 ppm in data set [9] is not below 80%.

In the case of `CC(F)(F)C[C@@](C)(Cc1ccccc1)NC(=O)c1cnc2ccccc2c1` [Compound F-26, N-[(1R)-1-benzyl-3,3-difluoro-1-methyl-butyl]quinoline-3-carboxamide], the inhibition of growth at 200 ppm in data set [1], in data set [2], in [3], in data set [5] and in data set [6] was not below 80% in each case. Besides, in data set [9], the pest or weed control at 200 ppm was not below 80%.
